For 1 compound, mortality results are on record in patent publication US9113631B2, “1,3-diaryl-substituted heterocyclic pesticides” (E I DU PONT DE NEMOURS AND COMPANY, priority 2011, dated 2015).

The assay has as its system potato leafhopper (Empoasca fabae). Put plainly: Test F: control of potato leafhopper on Soleil bean plant, contact and/or systemic. Format: in vivo. Particulars: 144 h, sprayed at 250 ppm, adults on Soleil bean plant, 6 days, 24° C., read-out: control efficacy, very good to excellent: mortality. On the procedure: Test compounds were formulated using a solution containing 10% acetone, 90% water and 300 ppm X-77® Spreader Lo-Foam Formula non-ionic surfactant containing alkylarylpolyoxyethylene, free fatty acids, glycols and isopropanol (Loveland Industries, Inc. Greeley, Colo., USA). The formulated compounds were applied in 1 mL of liquid through a SUJ2 atomizer nozzle with 1/8 JJ custom body (Spraying Systems Co., Wheaton, Ill., USA) positioned 1.27 cm (0.5 inches) above the top of each test unit. Test compounds were sprayed at 250 ppm and/or 50 ppm, and replicated three times. After spraying of the formulated test compound, each test unit was allowed to dry for 1 h and then a black, screened cap was placed on top. The test units were held for 6 days in a growth chamber at 25° C. and 70% relative humidity. Plant feeding damage was then visually assessed based on foliage consumed. […]
Test compounds were formulated and sprayed at 250 ppm and/or 50 ppm, and the tests were replicated three times as described for Test A. After spraying, the test units were allowed to dry for 1 h before they were post-infested with 5 potato leafhoppers (18-21-day-old adults). […] Each test unit was then visually assessed for insect mortality.

SMILES strings stand for the structures.

Consider `N#CC1CCN(Cc2cn(-c3cccc(C(F)(F)F)c3)nc2-c2ccc(F)cc2)CC1` [Compound 12, 1-[[3-(4-fluorophenyl)-1-[3-(trifluoromethyl)phenyl]-1H-pyrazol-4-yl]methyl]-4-piperidinecarbonitrile], for which the mortality at 250 ppm was no less than 80%.

The term mortality denotes the percentage killed.
